Consider one molecule from patent US8691799B2, “Materials and methods for treatment of cancer and identification of anti-cancer compounds” (priority 2001, dated 2014).

pIC50: −log10 of the molar value. “Also recorded” adds a separate entry of the source. Where two headings read alike, the source gives them in different places.

For data set [1], the system named is Ras/NIH 3T3 tumors. Description: Antitumor activity, oncogenic Ras-transformed NIH 3T3 tumors in nude mice. The settings on record: 1 mg/kg/day i.p. The format is in vivo. From the text: Antitumor Activity in the Nude Mouse Tumor Xenograft Model. Nude mice and C57 BL-6 black mice (National Cancer Institute, Bethesda, Md.) were maintained in accordance with the Institutional Animal Care and Use Committee (IACUC) procedures and guidelines. v-Src- and oncogenic H-Ras-transformed NIH 3T3, A549, MDA-MB-468 and Calu-1 cells were harvested, resuspended in PBS and injected s.c. into the right and left flank (10×10^6 cells per flank) of 8 week old female nude mice as reported previously (Sun, J. et al. Cancer Res., 1999, 59:4919-4926). Similarly, murine B16-F10 Melanoma cells were injected s.c. into the right and left flank (10^6 cells per flank) of C57 black mice. When tumors reached about 150 mm^3, animals were randomized (five animals per group; two tumors per animal) and dosed i.p. with 0.2 ml once daily. Control animals received DMSO (20%) vehicle whereas treated animals were injected with JSI-124 (1 mg/kg/day) in 20% DMSO in water. The tumor volumes were determined by measuring the length (l) and the width (w) and calculating the volume (V=1w^2/2) as described previously (Sun, J. et al. Cancer Res., 1999, 59:4919-4926). Statistical significance between control and treated animals were evaluated by using Student's t-test. […] Percent surviving mice was determined by monitoring the death of mice until all mice died. […]

Data set [2] relates to phospho-Akt. Description: Western blotting for phospho-Akt. The settings on record: A549 and MDA-MB-468 cells, up to 10 μM. The format is cell-based, human. On the procedure:
(§1) Western Blotting. Treated cell samples were lysed in 30 mM Hepes, pH 7.5, 10 mM NaCl, 5 mM MgCl2, 25 mM NaF, 1 mM EGTA, 1% Triton-X-100, 10% glycerol, 2 mM sodium orthovanadate, 10 μg/ml aprotinin, 10 μg/ml soybean trypsin inhibitor, 25 μg/ml leupeptin, 2 mM PMSF, and 6.4 mg/ml p-nitrophenylphosphate. Phospho-STAT3, phospho-AKT, phospho-MEK, and phospho-p42/p44 MAPK antibodies were obtained from Cell Signaling Technologies, Cambridge, Mass. Antibodies to STAT3, JAK2, and phospho-INK were purchased from Santa Cruz Biotechnology, Santa Cruz, Calif. Phospho-JAK2 antibody came from Upstate Biotechnology, Lake Placid, N.Y. Membranes were blocked in either 5% milk in PBS, pH 7.4, containing 0.1% Tween-20 (PBS-T) or 1% BSA in TBS, pH 7.5, containing 0.1% Tween-20 (TBS-T). Phospho-specific antibodies (excepting P-MAPK and P-JNK) were incubated in 1% BSA in TBS-T while all other antibodies were diluted in 5% milk in PBS-T for either 2 hr at room temperature or overnight at 4° C. HRP-conjugated secondary antibodies (Jackson ImmunoResearch) were diluted in 5% milk in either PBS-T or TBS-T at 1:1000 dilution for one hour at room temperature. Western blots were visualized using enhanced chemiluminescence as described previously (Blaskovich, M. A. et al. Nat. Biotechnol., 2000, 18:1065-1070).
For orientation: A western blot detects proteins with antibodies after separation by electrophoresis.

For data set [3] the following is noted: personal communication; cited from earlier work.
In data set [4] the test system is phosphotyrosine STAT3. Description: Western blotting for phosphotyrosine STAT3 in cancer cell lines. The format is cell-based, human. On the procedure: as §1
Immunoprecipitation of STAT3. A549 cells were treated for 4 hr with vehicle or JSI-124, then lysed in 150 mM Hepes, pH 7.5, 150 mM NaCl, 1 mM EDTA, 0.5% Nonidet P-40 (NP-40), 10% glycerol, 5 mM NaF, 1 mM DTT, 1 mM PMSF, 2 mM sodium orthovanadate, and 5 μg/ml leupeptin. Sample lysates were collected and cleared, then 500 μg of lysate was immunoprecipitated with 50 ng STAT3 antibody overnight at 4° C. then rocked with 25 μl Protein A/G PLUS agarose (Santa Cruz Biotechnology) for 1 hr at 4° C. Samples were washed four times with lysis buffer then boiled in 2×SDS-PAGE sample buffer and run on 10% SDS-PAGE gel. Protein was transferred to nitrocellulose and then blotted as above for both phospho-specific STAT3 and STAT3.

`CC(C)(O)/C=C/C(=O)[C@](C)(O)[C@H]1[C@H](O)C[C@@]2(C)[C@@H]3CC=C4[C@@H](C=C(O)C(=O)C4(C)C)[C@]3(C)C(=O)C[C@]12C` [JSI-124, cucurbitacin I]: the “growth of Ras/NIH 3T3 tumors” value in data set [1] was “resistant”. For the same molecule, the phospho-Akt levels result in data set [2] was “no inhibitory effect”. The “edema at the subcutaneous site of injection (NCI Developmental Therapeutics Program)” value in data set [3] is “edema was observed at the subcutaneous site of injection”. For the same molecule, the “levels of tyrosine phosphorylated STAT3 (Western blot)” value in data set [4] (10 μM, 4 hr, A549, MDA-MB-468, MDA-MB-231, Panc-1 and v-Src NIH 3T3 cells) was “very effective at reducing the levels of tyrosine phosphorylated STAT3”. The “phosphotyrosine STAT3 levels after STAT3 immunoprecipitation” value in data set [4] (10 μM, 4 hr, A549 and MDA-MB-468 cells) is listed as “reduced phosphotyrosine STAT3 to barely detectable levels”. In data set [4] (A549 and MDA-MB-468 cells, 0-10 μM, 4 hr), the “levels of tyrosine phosphorylated STAT3, various concentrations” value is given as “reduction of the levels of tyrosine phosphorylated STAT3; also recorded: suppression of phospho-STAT3 levels in both cell lines”. Moreover, the “inhibition of phospho STAT3 levels (in words)” value in data set [4] (A-549 cells, 0-10 μM) is “inhibits both phospho STAT3 and phospho JAK2 levels”. The pIC50 in data set [4] (A-549 cells, Western blotting, read-out: IC50 for phospho-STAT3) is 6.70; in data set [4] (read-out: IC50 as suppressor of the JAK/STAT3 tumor survival pathway), 6.70.
